Measured values as given in ChEMBL document CHEMBL1137116, “Synthesis and structure-activity relationships of 1,5-diazaanthraquinones as antitumour compounds” (Bioorg Med Chem Lett, 2004).

Key:
HT-29 = assay: Cytotoxic activity of compound against HT-29 (Human colon carcinoma) cell line; format: functional, cell-based
[1] = Cytotoxic activity of compound against MEL-28 (Human melanoma) cell line; format: functional; settings: SK-MEL-28
A549 = assay: Cytotoxic activity against A-549 (Human lung carcinoma) cell line; format: functional, cell-based

SMILES: Cc1cc[n+](N(C)C)c2c1C(=O)c1nccc(Cl)c1C2=O
- IC50 (HT-29): 1930 nM
- IC50 [1]: 330 nM
- IC50 (A549): 330 nM

SMILES: O=C1c2cccnc2C(=O)c2cccnc21
- IC50 (HT-29): 4800 nM
- IC50 [1]: 4800 nM
- IC50 (A549): 4800 nM

SMILES: Cc1ccnc2c1C(=O)c1c(C)ccnc1C2=O
- IC50 (HT-29): 2100 nM
- IC50 [1]: 2100 nM
- IC50 (A549): 2100 nM

SMILES: CCc1c(C)cnc2c1C(=O)c1c(ncc(C)c1CC)C2=O
- IC50 (HT-29): 8500 nM
- IC50 [1]: 8500 nM
- IC50 (A549): 8500 nM

SMILES: O=C1c2nccc(-c3ccccc3[N+](=O)[O-])c2C(=O)c2nccc(O)c21
- IC50 (HT-29): 7200 nM
- IC50 [1]: 7200 nM
- IC50 (A549): 7200 nM

SMILES: CCc1cnc2c(c1)C(=O)c1ncc(CC)cc1C2=O
- IC50 (HT-29): 1880 nM
- IC50 [1]: 380 nM
- IC50 (A549): 190 nM

SMILES: Cc1ccnc2c1C(=O)c1nccc(C)c1C2=O
- IC50 (HT-29): 1000 nM
- IC50 [1]: 1000 nM
- IC50 (A549): 500 nM

SMILES: Cc1ccnc2c1C(=O)c1nccc(N(C)C)c1C2=O
- IC50 (HT-29): 930 nM
- IC50 [1]: 370 nM
- IC50 (A549): 370 nM

SMILES: CCc1cnc2c(c1)C(=O)c1cc(CC)cnc1C2=O
- IC50 (HT-29): 1880 nM
- IC50 [1]: 790 nM
- IC50 (A549): 450 nM

SMILES: CCc1c(C)cnc2c1C(=O)c1ncc(C)c(CC)c1C2=O
- IC50 (HT-29): 3400 nM
- IC50 [1]: 3400 nM
- IC50 (A549): 3400 nM

SMILES: Cc1cnc2c(c1)C(=O)c1nccc(Cl)c1C2=O
- IC50 (HT-29): 40 nM
- IC50 [1]: 30 nM
- IC50 (A549): 30 nM

SMILES: Cc1cnc2c(c1)C(=O)c1cc(C)cnc1C2=O
- IC50 (HT-29): 500 nM
- IC50 [1]: 210 nM
- IC50 (A549): 210 nM

SMILES: Cc1ccnc2c1C(=O)c1nccc(Cl)c1C2=O
- IC50 (HT-29): 1930 nM
- IC50 [1]: 190 nM
- IC50 (A549): 190 nM

SMILES: Cc1cnc2c(c1)C(=O)c1ncc(C)cc1C2=O
- IC50 (HT-29): 420 nM
- IC50 [1]: 40 nM
- IC50 (A549): 40 nM

SMILES: O=C1c2nccc(-c3ccccc3[N+](=O)[O-])c2C(=O)c2nccc(Cl)c21
- IC50 (HT-29): 270 nM
- IC50 [1]: 30 nM
- IC50 (A549): 30 nM

SMILES: O=C1c2cccnc2C(=O)c2ncccc21
- IC50 (HT-29): 5700 nM
- IC50 [1]: 4800 nM
- IC50 (A549): 4800 nM

SMILES: Cc1ccnc2c1C(=O)c1nc3c(cc1C2=O)CCCC3
- IC50 (HT-29): 18000 nM
- IC50 [1]: 18000 nM
- IC50 (A549): 4490 nM

SMILES: COc1cccc2c1C(=O)c1c(O)c3c(c(O)c1C2=O)C[C@@](O)(C(=O)CO)C[C@@H]3O[C@H]1C[C@H](N)[C@H](O)[C@H](C)O1 [DOXORUBICIN]
- IC50 (HT-29): 90 nM
- IC50 [1]: 30 nM
- IC50 (A549): 10 nM
